Experimental data: patent publication EP4635500A1, “THERAPEUTIC AGENT FOR BACTERIAL INFECTION” (Sumitomo Pharma Co., Ltd., priority 2022, dated 2024)
Converted amounts (≈) assume the structure as drawn. Like-named read-outs stand apart in the source and are kept apart here.

Key:
Bacteroides spp. = test: MIC, agar dilution, anaerobic bacteria (Example 9, Tables 17, 22); format: cell-based; conditions: (n)=Compound A µg/mL, 0=Compound A alone antibacterial
Prevotella spp. = test: MIC, agar dilution, anaerobic bacteria (Example 9, Tables 18, 23); format: cell-based; conditions: for MIC: (n)=Compound A µg/mL, 0=Compound A alone antibacterial

**Q.** With `C[C@@H](O)[C@H]1C(=O)N2C(C(=O)O)=C(S[C@@H]3CN[C@H](C(=O)N(C)C)C3)[C@H](C)[C@H]12` [MEPM, meropenem] as the molecule, how does the MIC (Bacteroides spp.; KUB No. 6506 Bacteroides thetaiotaomicron) read?
**A.** Its MIC is 4 µg/mL (≈ 10.4 µM).

**Q.** What about the MIC (Bacteroides spp.; KUB No. 6509 Bacteroides fragilis) of the same molecule?
**A.** Its MIC is over 512 µg/mL.

**Q.** What about the MIC (Bacteroides spp.; KUB No. 6511 Bacteroides salyersiae) of the same molecule?
**A.** Its MIC is 1 µg/mL (≈ 2.61 µM).

**Q.** What about the MIC (Bacteroides spp.; KUB No. 6513 Bacteroides fragilis) of the same molecule?
**A.** Its MIC is 0.25 µg/mL (≈ 0.652 µM).

**Q.** And the MIC (Bacteroides spp.; KUB No. 6515 Bacteroides thetaiotaomicron)?
**A.** Its MIC is 2 µg/mL (≈ 5.22 µM).

**Q.** What about the MIC (Bacteroides spp.; KUB No. 6518 Bacteroides fragilis) of the same molecule?
**A.** The MIC was 0.06 µg/mL (≈ 0.156 µM).

**Q.** And the MIC (Bacteroides spp.; KUB No. 6522 Bacteroides fragilis)?
**A.** Its MIC is 0.25 µg/mL (≈ 0.652 µM).

**Q.** What about the MIC (Bacteroides spp.; KUB No. 6523 Bacteroides fragilis) of the same molecule?
**A.** The MIC was 4 µg/mL (≈ 10.4 µM).

**Q.** What about the MIC (Bacteroides spp.; KUB No. 6525 Bacteroides fragilis) of the same molecule?
**A.** The MIC was 4 µg/mL (≈ 10.4 µM).

**Q.** And the MIC (Bacteroides spp.; KUB No. 6527 Bacteroides thetaiotaomicron)?
**A.** Its MIC is 4 µg/mL (≈ 10.4 µM).

**Q.** What about the MIC (Bacteroides spp.; KUB No. 6530 Bacteroides thetaiotaomicron) of the same molecule?
**A.** The MIC was 2 µg/mL (≈ 5.22 µM).

**Q.** And the MIC (Bacteroides spp.; KUB No. 6535 Bacteroides fragilis)?
**A.** Its MIC is 0.12 µg/mL (≈ 0.313 µM).

**Q.** What about the MIC (Bacteroides spp.; KUB No. 6544 Bacteroides vulgatus) of the same molecule?
**A.** The MIC was 1 µg/mL (≈ 2.61 µM).

**Q.** What about the MIC (Bacteroides spp.; KUB No. 6545 Bacteroides thetaiotaomicron) of the same molecule?
**A.** The MIC was 2 µg/mL (≈ 5.22 µM).

**Q.** What about the MIC (Bacteroides spp.; KUB No. 6556 Bacteroides vulgatus) of the same molecule?
**A.** Its MIC is 1 µg/mL (≈ 2.61 µM).

**Q.** And the MIC (Prevotella spp.; KUB No. 2989 Prevotella histicola)?
**A.** The MIC was 0.06 µg/mL (≈ 0.156 µM).

**Q.** And the MIC (Prevotella spp.; KUB No. 2991 Prevotella intermedia)?
**A.** The MIC was 0.06 µg/mL (≈ 0.156 µM).

**Q.** What about the MIC (Prevotella spp.; KUB No. 2992 Prevotella buccae) of the same molecule?
**A.** Its MIC is 0.12 µg/mL (≈ 0.313 µM).

**Q.** What about the MIC (Prevotella spp.; KUB No. 3005 Prevotella melaninogenica) of the same molecule?
**A.** Its MIC is at most 0.03 µg/mL.

**Q.** And the MIC (Prevotella spp.; KUB No. 6558 Prevotella heparinolytica)?
**A.** The MIC was 0.06 µg/mL (≈ 0.156 µM).

**Q.** What about the MIC (Prevotella spp.; KUB No. 6559 Prevotella intermedia) of the same molecule?
**A.** The MIC was at most 0.03 µg/mL.

**Q.** What about the MIC (Prevotella spp.; KUB No. 6560 Prevotella nigrescens) of the same molecule?
**A.** Its MIC is at most 0.03 µg/mL.

**Q.** And the MIC (Prevotella spp.; KUB No. 6561 Prevotella melaninogenica)?
**A.** The MIC was 0.12 µg/mL (≈ 0.313 µM).

**Q.** What about the MIC (Prevotella spp.; KUB No. 6563 Prevotella nigrescens) of the same molecule?
**A.** Its MIC is at most 0.03 µg/mL.

**Q.** And the MIC (Prevotella spp.; KUB No. 6564 Prevotella buccae)?
**A.** Its MIC is 0.12 µg/mL (≈ 0.313 µM).

**Q.** What about the MIC (Prevotella spp.; KUB No. 6565 Prevotella nigrescens) of the same molecule?
**A.** The MIC was 0.06 µg/mL (≈ 0.156 µM).

**Q.** And the MIC (Prevotella spp.; KUB No. 6567 Prevotella melaninogenica)?
**A.** Its MIC is at most 0.03 µg/mL.

**Q.** And the MIC (Prevotella spp.; KUB No. 6568 Prevotella intermedia)?
**A.** The MIC was 0.06 µg/mL (≈ 0.156 µM).

**Q.** And the MIC (Prevotella spp.; KUB No. 6569 Prevotella nanceiensis)?
**A.** The MIC was 0.5 µg/mL (≈ 1.3 µM).

**Q.** What about the MIC (Prevotella spp.; KUB No. 6570 Prevotella intermedia) of the same molecule?
**A.** The MIC was 0.06 µg/mL (≈ 0.156 µM).

**Q.** And the MIC (Prevotella spp.; KUB No. 6571 Prevotella denticola)?
**A.** The MIC was 0.06 µg/mL (≈ 0.156 µM).

**Q.** What about the MIC (Prevotella spp.; KUB No. 6572 Prevotella melaninogenica) of the same molecule?
**A.** The MIC was 0.06 µg/mL (≈ 0.156 µM).

**Q.** And the MIC (Prevotella spp.; KUB No. 6574 Prevotella oris)?
**A.** Its MIC is at most 0.03 µg/mL.

**Q.** And the MIC (Prevotella spp.; KUB No. 6575 Prevotella nigrescens)?
**A.** Its MIC is at most 0.03 µg/mL.

**Q.** What about the MIC (Prevotella spp.; KUB No. 6576 Prevotella intermedia) of the same molecule?
**A.** The MIC was at most 0.03 µg/mL.

**Q.** What about the MIC (Prevotella spp.; KUB No. 6579 Prevotella pallens) of the same molecule?
**A.** Its MIC is 0.06 µg/mL (≈ 0.156 µM).

**Q.** What about the MIC (Prevotella spp.; KUB No. 6581 Prevotella intermedia) of the same molecule?
**A.** Its MIC is 0.06 µg/mL (≈ 0.156 µM).

**Q.** What about the MIC (Prevotella spp.; KUB No. 6582 Prevotella melaninogenica) of the same molecule?
**A.** Its MIC is 0.06 µg/mL (≈ 0.156 µM).

**Q.** What about the MIC (Prevotella spp.; KUB No. 6585 Prevotella baroniae) of the same molecule?
**A.** Its MIC is 0.06 µg/mL (≈ 0.156 µM).

**Q.** And the MIC (Prevotella spp.; KUB No. 6587 Prevotella melaninogenica)?
**A.** Its MIC is 0.06 µg/mL (≈ 0.156 µM).

**Q.** What about the MIC (Prevotella spp.; KUB No. 6588 Prevotella nigrescens) of the same molecule?
**A.** Its MIC is at most 0.03 µg/mL.

**Q.** What about the MIC (Prevotella spp.; KUB No. 6589 Prevotella buccae) of the same molecule?
**A.** Its MIC is 0.12 µg/mL (≈ 0.313 µM).

**Q.** What about the MIC (Prevotella spp.; KUB No. 6590 Prevotella buccae) of the same molecule?
**A.** The MIC was 0.32 µg/mL (≈ 0.834 µM).

**Q.** What about the MIC (Prevotella spp.; KUB No. 6591 Prevotella intermedia) of the same molecule?
**A.** Its MIC is 0.06 µg/mL (≈ 0.156 µM).

**Q.** What about the MIC (Prevotella spp.; KUB No. 6592 Prevotella jejuni) of the same molecule?
**A.** Its MIC is 0.06 µg/mL (≈ 0.156 µM).

**Q.** What about the MIC (Prevotella spp.; KUB No. 6600 Prevotella intermedia) of the same molecule?
**A.** The MIC was at most 0.03 µg/mL.

**Q.** And the MIC (Prevotella spp.; KUB No. 6601 Prevotella melaninogenica)?
**A.** Its MIC is 0.12 µg/mL (≈ 0.313 µM).

**Q.** And the MIC (Prevotella spp.; KUB No. 6603 Prevotella melaninogenica)?
**A.** Its MIC is 0.12 µg/mL (≈ 0.313 µM).

**Q.** What about the MIC (Prevotella spp.; KUB No. 6609 Prevotella buccae) of the same molecule?
**A.** The MIC was 0.12 µg/mL (≈ 0.313 µM).

**Q.** And the MIC (Prevotella spp.; KUB No. 6611 Prevotella nigrescens)?
**A.** Its MIC is 0.06 µg/mL (≈ 0.156 µM).

**Q.** And the MIC (Prevotella spp.; KUB No. 6612 Prevotella oris)?
**A.** The MIC was 0.25 µg/mL (≈ 0.652 µM).

**Q.** And the MIC (Prevotella spp.; KUB No. 6613 Prevotella buccae)?
**A.** The MIC was 0.12 µg/mL (≈ 0.313 µM).

**Q.** What about the MIC (Prevotella spp.; KUB No. 6614 Prevotella intermedia) of the same molecule?
**A.** Its MIC is at most 0.03 µg/mL.

**Q.** What about the MIC (Prevotella spp.; KUB No. 6615 Prevotella buccae) of the same molecule?
**A.** Its MIC is 0.06 µg/mL (≈ 0.156 µM).

**Q.** What about the MIC (Prevotella spp.; KUB No. 6617 Prevotella buccae) of the same molecule?
**A.** Its MIC is 0.06 µg/mL (≈ 0.156 µM).

**Q.** What about the MIC (Prevotella spp.; KUB No. 6618 Prevotella melaninogenica) of the same molecule?
**A.** Its MIC is 0.06 µg/mL (≈ 0.156 µM).

**Q.** What about the MIC (Prevotella spp.; KUB No. 6622 Prevotella loescheii) of the same molecule?
**A.** The MIC was 0.06 µg/mL (≈ 0.156 µM).

**Q.** What about the MIC (Prevotella spp.; KUB No. 6623 Prevotella nigrescens) of the same molecule?
**A.** Its MIC is at most 0.03 µg/mL.

**Q.** What about the MIC (Prevotella spp.; KUB No. 6625 Prevotella melaninogenica) of the same molecule?
**A.** Its MIC is at most 0.03 µg/mL.

**Q.** What about the MIC (Prevotella spp.; KUB No. 6626 Prevotella loescheii) of the same molecule?
**A.** Its MIC is at most 0.03 µg/mL.

**Q.** And the MIC (Prevotella spp.; KUB No. 6629 Prevotella bivia)?
**A.** Its MIC is 0.06 µg/mL (≈ 0.156 µM).

**Q.** And the MIC (Prevotella spp.; KUB No. 6630 Prevotella nigrescens)?
**A.** Its MIC is at most 0.03 µg/mL.

**Q.** What about the MIC (Prevotella spp.; KUB No. 6631 Prevotella jejuni) of the same molecule?
**A.** The MIC was 0.06 µg/mL (≈ 0.156 µM).

**Q.** And the MIC50 (Prevotella spp.; Prevotella spp.)?
**A.** Its MIC50 is 0.06 µg/mL (≈ 0.156 µM).

**Q.** What about the MIC90 (Prevotella spp.; Prevotella spp.) of the same molecule?
**A.** Its MIC90 is 0.12 µg/mL (≈ 0.313 µM).

**Q.** And the MICrange (Prevotella spp.; Prevotella spp.)?
**A.** The MICrange was at most 0.03 to 0.5 µg/mL.

**Q.** What about the MIC (Prevotella spp.; Prevotella, KUB No. 6583 Prevotella nonceiensis) of the same molecule?
**A.** Its MIC is 0.12 µg/mL (≈ 0.313 µM).

**Q.** And the MIC (Prevotella spp.; Prevotella, KUB No. 6604 Prevotella nonceiensis)?
**A.** Its MIC is 0.25 µg/mL (≈ 0.652 µM).

**Q.** And the MIC50 (Prevotella spp.; Prevotella, n=54, combination: Compound A at 4 ug/mL, read-out: MIC50)?
**A.** The MIC50 was 0.06 µg/mL.

**Q.** And the MIC90 (Prevotella spp.; Prevotella, n=54, combination: Compound A at 4 ug/mL, read-out: MIC90)?
**A.** Its MIC90 is 0.12 µg/mL.

**Q.** And the MIC (Prevotella spp.; po, KUB No. 6566 Prevotella oralis)?
**A.** Its MIC is at most 0.03 µg/mL.
